Each structure is given as a SMILES string. Where two headings read alike, the source gives them in different places.

This note sets out measurements from US7888386B2, “3-(phenoxyphenylmethyl)pyrrolidine compounds” (Theravance, Inc., priority 2008, dated 2011).

Data set [1] in a line: Thermal analysis (DSC) of crystalline salt. It is filed as physicochemical. Particulars: crystalline monohydrochloride salt, heating ramp 10° C./min. How it is done: Differential scanning calorimetry (DSC) was performed using a TA Instruments Model Q-100 module with a Thermal Analyst controller. Data were collected and analyzed using TA Instruments Thermal Solutions software. A 1.64 mg sample of the crystalline form of Example 2 was accurately weighed into a covered aluminum pan. After a 5 minute isothermal equilibration period at 22° C., the sample was heated using a linear heating ramp of 10° C./min from 22° C. to 250° C.

The target of data set [2] is T1, hNET (Homo sapiens, UniProt P23975).
T1 construct: expressed in transfected cells; host or cells: HEK-293 derived cell line, stably transfected; membrane preparation
In words: hNET binding assay (Assay 1). Particulars: read-out: NET pKi (converted). The method, boiled down:
(§1)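 Membranes from HEK-293 cells stably expressing human NET or SERT competed test compound against ^3H-nisoxetine (hNET) or ^3H-citalopram (hSERT). Buffer was 50 mM Tris-HCl pH 7.4, 120 mM NaCl, 5 mM KCl, 0.1% BSA and 400 μM ascorbic acid.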

In data set [3] the target is T2, hSERT (Homo sapiens, UniProt P31645).
T2 construct: expressed in transfected cells; host or cells: HEK-293 derived cell line, stably transfected; membrane preparation
Description: hSERT binding assay (Assay 1). In short, it runs like this:
as §1

Setting [4] is: ratio of SERT Ki to NET Ki from binding assays.
[5] abbreviates: ratio of SERT Ki to NET Ki (binding).
Where [6] appears, read: membranes of HEK-293 cells expressing hNET, 1.0 nM 3H-nisoxetine.
Where [7] appears, read: ratio of binding Ki at hSERT to Ki at hNET, rounded off to the nearest tenth.

T1 sequence (P23975 whole entry): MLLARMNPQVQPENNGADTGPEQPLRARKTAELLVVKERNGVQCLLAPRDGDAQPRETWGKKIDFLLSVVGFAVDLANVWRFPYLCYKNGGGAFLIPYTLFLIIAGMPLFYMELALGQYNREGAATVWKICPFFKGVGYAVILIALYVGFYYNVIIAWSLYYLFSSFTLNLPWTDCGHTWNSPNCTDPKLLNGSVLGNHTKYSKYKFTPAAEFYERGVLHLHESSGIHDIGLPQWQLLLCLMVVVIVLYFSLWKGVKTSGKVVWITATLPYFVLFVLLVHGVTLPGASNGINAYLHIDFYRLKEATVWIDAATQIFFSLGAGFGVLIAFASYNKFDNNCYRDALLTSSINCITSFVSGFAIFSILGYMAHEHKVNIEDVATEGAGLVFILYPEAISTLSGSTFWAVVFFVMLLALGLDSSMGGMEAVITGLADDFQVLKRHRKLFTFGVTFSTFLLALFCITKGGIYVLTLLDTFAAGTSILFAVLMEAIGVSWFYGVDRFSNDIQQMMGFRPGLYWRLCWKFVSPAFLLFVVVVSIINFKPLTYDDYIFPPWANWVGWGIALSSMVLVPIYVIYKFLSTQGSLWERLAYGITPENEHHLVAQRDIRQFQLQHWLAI
T2 sequence (P31645 whole entry): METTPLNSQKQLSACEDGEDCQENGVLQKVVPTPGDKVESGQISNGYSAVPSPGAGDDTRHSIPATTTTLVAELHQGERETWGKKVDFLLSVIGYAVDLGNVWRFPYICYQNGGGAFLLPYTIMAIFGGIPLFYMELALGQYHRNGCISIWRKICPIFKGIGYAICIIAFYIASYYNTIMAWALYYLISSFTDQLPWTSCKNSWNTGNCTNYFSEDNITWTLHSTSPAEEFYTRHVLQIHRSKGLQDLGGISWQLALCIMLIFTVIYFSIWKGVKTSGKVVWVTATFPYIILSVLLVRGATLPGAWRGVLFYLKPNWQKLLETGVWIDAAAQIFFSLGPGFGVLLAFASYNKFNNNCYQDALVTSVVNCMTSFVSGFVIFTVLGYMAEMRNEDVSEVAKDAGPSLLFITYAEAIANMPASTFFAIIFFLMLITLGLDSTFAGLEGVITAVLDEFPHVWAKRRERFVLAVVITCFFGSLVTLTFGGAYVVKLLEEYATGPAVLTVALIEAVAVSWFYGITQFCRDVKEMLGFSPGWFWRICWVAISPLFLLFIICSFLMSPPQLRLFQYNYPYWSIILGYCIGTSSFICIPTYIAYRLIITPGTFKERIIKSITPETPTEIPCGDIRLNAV

As to `Clc1cc(Cl)cc(O[C@H](c2ccccc2)[C@@H]2CCNC2)c1` [Ex. 16, (R)-3-[(S)-(3,5-Dichlorophenoxy)phenylmethyl]pyrrolidine], the “no thermal decomposition below (DSC)” value in data set [1] was no less than 220 °C. For `Fc1ccc(F)c(O[C@H](c2ccccc2)[C@@H]2CCNC2)c1Cl` [Ex. 14, (R)-3-[(S)-(2-chloro-3,6-difluorophenoxy)phenyl-methyl]pyrrolidine], in data set [1], the “no thermal decomposition below (DSC)” value is no less than 160 °C. On to `Fc1cc(F)c(Cl)c(O[C@@H](c2ccccc2)[C@H]2CCNC2)c1Cl` [Ex. 11, (S)-3-[(R)-(2,6-dichloro-3,5-difluorophenoxy)phenylmethyl]pyrrolidine], for which the “no thermal decomposition below (DSC)” value in data set [1] was no less than 190.7 °C. As to `COc1cccc(F)c1OC(c1ccccc1)C1CCNC1` (stereo not shown) [31-15], the Ki in data set [2] (hNET binding assay) was 2 nM. For the same compound, the “SERT Ki/NET Ki” value in data set [3] (setting [4]) was 2. For `COc1cc(F)ccc1OC(c1cc(F)cc(F)c1)C1CCNC1` (stereo not shown) [28-17] the same measures were 0.398 nM and 25. For the compound `Fc1ccc(F)c(O[C@H](c2ccccc2)[C@@H]2CCNC2)c1` [29-3], in data set [2] (hNET binding assay), the Ki was 7.94 nM. Besides, the “SERT Ki/NET Ki” value in data set [3] (setting [4]) stood at 0.5. `COc1ccc(F)c(F)c1O[C@H](c1ccccc1)[C@@H]1CCNC1` [40-8]: the Ki in data set [2] (hNET binding) is 1 nM. In data set [3] (setting [5]), the “SERT Ki/NET Ki” value came out at 1. Regarding `Clc1ccc(Cl)c(OC(c2ccccc2)C2CCNC2)c1` (stereo not shown) [29-11], in data set [2] (hNET binding assay), the Ki was 3.98 nM. In data set [3] (setting [4]), the “SERT Ki/NET Ki” value is 0.2.

For the compound `Fc1ccc(Cl)c(F)c1OC(c1ccccc1)C1CCNC1` (stereo not shown) [40-15], the Ki in data set [2] (hNET binding) is 0.251 nM. In addition, in data set [3] (setting [5]), the “SERT Ki/NET Ki” value was found to be 1.3.

In the case of `NC(=O)c1cccc(C(Oc2c(F)cc(F)cc2F)C2CCNC2)c1` (stereo not shown) [45-5], in data set [2] (hNET binding, the tables list only compounds with NET pKi≧8), the Ki was 7.94 nM. Also, the “SERT Ki/NET Ki” value in data set [3] (ratio of binding Ki at SERT to Ki at NET, the tables list only compounds with a ratio in the range 0.1-100) amounted to 3.2. As to `Brc1ccccc1OC(c1ccccc1)C1CCNC1` (stereo not shown) [Compound 19-7], the Ki in data set [2] (setting [6]) is 1 nM. In addition, in data set [3] (setting [7]), the “SERT Ki/NET Ki” value worked out at 1. For `COc1cc(F)ccc1OC(c1ccccc1)C1CCNC1` (stereo not shown) [27-25], the Ki in data set [2] (hNET binding assay) is 0.794 nM. In data set [3] (setting [4]), the “SERT Ki/NET Ki” value was 4.6. In the case of `COc1ccc(Cl)cc1OC(c1cccc(Cl)c1)C1CCNC1` (stereo not shown) [30-9], the Ki in data set [2] (hNET binding assay) is 7.94 nM. The “SERT Ki/NET Ki” value in data set [3] (setting [4]) stood at 0.6. With `Cc1ccc(F)c(O[C@@H](c2ccccc2)[C@H]2CCNC2)c1Cl` [Ex. 13, (S)-3-[(R)-(2-chloro-6-fluoro-3-methylphenoxy)phenylmethyl]pyrrolidine], in data set [2] (hNET binding), the Ki is 0.251 nM. Moreover, the “SERT Ki/NET Ki” value in data set [3] (setting [5]) worked out at 1.3. As to `Brc1cccc(OC(c2ccccc2)C2CCNC2)c1` (stereo not shown) [Compound 21-5], the Ki in data set [2] (setting [6]) is 3.16 nM. In addition, the “SERT Ki/NET Ki” value in data set [3] (setting [7]) stood at 0.2. Turning to `Fc1cc(F)cc(C(Oc2cc(Cl)ccc2Cl)C2CCNC2)c1` (stereo not shown) [30-3], the Ki in data set [2] (hNET binding assay) is 3.98 nM. The “SERT Ki/NET Ki” value in data set [3] (setting [4]) was 0.3. On to `c1ccc(Cc2ccccc2OC(c2ccccc2)C2CCNC2)cc1` (stereo not shown) [Compound 19-20], for which the Ki in data set [2] (setting [6]) is 7.94 nM. The “SERT Ki/NET Ki” value in data set [3] (setting [7]) is on record as 1.6. Take `Fc1ccc(Cl)cc1O[C@H](c1ccccc1)[C@@H]1CCNC1` [29-6]: the Ki in data set [2] (hNET binding assay) is 3.98 nM. In data set [3] (setting [4]), the “SERT Ki/NET Ki” value came out at 0.3. As for `Fc1cc(F)cc([C@H](Oc2c(F)ccc(F)c2F)[C@H]2CCNC2)c1` [41-1], the Ki in data set [2] (hNET binding) is 0.251 nM. The “SERT Ki/NET Ki” value in data set [3] (setting [5]) stood at 100.

As for `Cc1ccc(C(Oc2cc(Cl)cc(Cl)c2)C2CCNC2)cc1` (stereo not shown) [35-12], the Ki in data set [2] (hNET binding) is 7.94 nM. Besides, the “SERT Ki/NET Ki” value in data set [3] (setting [5]) is on record as 0.1.

With `Cc1ccc(Cl)c(O[C@H](c2cc(F)cc(F)c2)[C@@H]2CCNC2)c1F` [41-9], the Ki in data set [2] (hNET binding) is 0.794 nM. The “SERT Ki/NET Ki” value in data set [3] (setting [5]) amounted to 0.8.

`Cc1ccc(Cl)c(OC(c2ccccc2)C2CCNC2)c1F` (stereo not shown) [40-27]: in data set [2] (hNET binding), the Ki is 0.251 nM. Besides, in data set [3] (setting [5]), the “SERT Ki/NET Ki” value is 5.

For `c1ccc(Oc2cccc(OC(c3ccccc3)C3CCNC3)c2)cc1` (stereo not shown) [Compound 21-13], the Ki in data set [2] (setting [6]) is 1.26 nM. Moreover, in data set [3] (setting [7]), the “SERT Ki/NET Ki” value is listed as 1.3.
